Data reported in patent US6924278B2, “Aroyl-piperazine derivatives, their preparation and their use as tachykinin antagonists” (Fujisawa Pharmaceutical Co., Ltd., priority 1997, dated 2005).

Assays:
emesis in the ferret = test: Emesis in the ferret (copper sulfate-induced retching and vomiting); assay type: in vivo; details: dose of 1.0 mg/kg i.v., 30 min before intra-gastric copper sulfate (40 mg/kg/ml), observed for the next 30 min
Procedure: Individually housed adult male ferrets (Marshall Farms, 1.4 to 2.2 kg) were given an i.v. injection of a solution contatining a test compound. 30 Min later the emetic responses (retching and vomiting) were induced by administration of intra-gastric copper sulfate (40 mg/kg/ml) and observed for the next 30 min. The timing and number of retches and vomits observed were recorded for each animal. An individual animal was tested with at least 10 days between experiments.

h-NK1 receptors = molecular target: T1, h-NK1 receptors (Homo sapiens, UniProt P25103); test: Evaluation of NK1 antagonist transport efficiency to the central nervous system using a h-NK1 receptor binding assay (brain extract after i.v. dosing of rats); details: 5 min; compound extracted from brain of male SD rats 5 min after i.v. injection at the dose of 1 mg/kg; CHO cell membranes expressing h-NK1; read-out: inhibition rate of 125I-BH-Substance P binding to h-NK1 receptors
T1 construct: expressed in transfected cells; host or cells: CHO cells (permanent expression), crude cell membranes
T1 sequence (P25103 whole entry): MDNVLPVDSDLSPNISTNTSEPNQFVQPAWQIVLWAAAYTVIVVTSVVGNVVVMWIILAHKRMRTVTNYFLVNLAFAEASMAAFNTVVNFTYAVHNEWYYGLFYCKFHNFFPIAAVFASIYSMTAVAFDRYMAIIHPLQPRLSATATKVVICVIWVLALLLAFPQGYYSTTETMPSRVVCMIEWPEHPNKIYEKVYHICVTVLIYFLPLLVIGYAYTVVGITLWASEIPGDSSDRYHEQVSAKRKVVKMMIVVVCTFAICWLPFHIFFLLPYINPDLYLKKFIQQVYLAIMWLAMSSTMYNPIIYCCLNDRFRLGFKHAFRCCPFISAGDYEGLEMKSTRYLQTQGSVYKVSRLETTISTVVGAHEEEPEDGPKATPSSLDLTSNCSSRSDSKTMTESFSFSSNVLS
Procedure, shortened: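 Male SD rats received 1 mg/kg i.v.; 5 min later brains were perfused, homogenized and extracted with ethyl acetate, and the extract was redissolved in DMSO. Extracts were tested against 0.1 nM ^125I-BH-Substance P on h-NK1 CHO membranes (6 μg/ml), pH 7.4 Tris/MnCl2, 90 min at 22° C. Filtration readout; specific binding defined by 3 μM unlabeled Substance P.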

| SMILES | melting point [°C] | inhibition at 1 mg/kg (h-NK1 receptors) [%] | inhibition rate of emesis in the ferret (emesis in the ferret) [%] |
| --- | --- | --- | --- |
| Cc1ccc(C[C@@H]2CN(CCCN(C=O)N3CCOCC3)CCN2C(=O)c2cc(C(F)(F)F)cc(C(F)(F)F)c2)cc1C.Cl [Example 26] |  |  | 100 |
| CN(CCN1CCN(C(=O)c2cc(C(F)(F)F)cc(C(F)(F)F)c2)[C@H](Cc2ccc3ccccc3c2)C1)Cc1cccnc1.Cl.Cl [Example 40] |  |  | 100 |
| CN(CCN1CCN(C(=O)c2cc(C(F)(F)F)cc(C(F)(F)F)c2)[C@H](Cc2c[nH]c3ccccc23)C1)Cc1cccnc1.Cl.Cl [Example 41, (2R)-1-[3,5-Bis(trifluoromethyl)benzoyl]-2-[(1H-indol-3-yl)methyl]-4-[2-[N-methyl-N-(3-pyridylmethyl)amino]ethyl]piperazine dihydrochloride] |  |  | 100 |

Second part, led by results:

| melting point [°C] | inhibition at 1 mg/kg (h-NK1 receptors) [%] | SMILES | inhibition rate of emesis in the ferret (emesis in the ferret) [%] |
| --- | --- | --- | --- |
| 80 to 100 |  | Cl.Cl.O=C(c1cc(C(F)(F)F)cc(C(F)(F)F)c1)N1CCN(CCCc2ccccn2)C[C@H]1Cc1c[nH]c2ccccc12 [4-(2), (2R)-1-[3,5-Bis(trifluoromethyl)benzoyl]-2-[(1H-indol-3-yl)methyl]-4-[3-(2-pyridyl)propyl]piperazine dihydrochloride] | 100 |
| 115 to 116 | > 80 | Cc1ccc(C[C@@H]2CN(Cc3cnn(CCN4CCOCC4)c3)CCN2C(=O)c2cc(C(F)(F)F)cc(C(F)(F)F)c2)cc1C.Cl.Cl [Example 29, (2R)-1-[3,5-bis(trifluoromethyl)benzoyl]-2-(3,4-dimethylbenzyl)-4-[[1-(2-morpholinoethyl)-1H-pyrazol-4-yl]methyl]piperazine dihydrochloride] | 100 |
| 225 to 232 | > 80 | Cc1ccc(C[C@@H]2CN(C/C=C/[C@@H]3COCCN3)CCN2C(=O)c2cc(C(F)(F)F)cc(C(F)(F)F)c2)cc1C.Cl.Cl [Example 45, (2R)-1-[3,5-bis(trifluoromethyl)benzoyl]-2-(3,4-dimethylbenzyl)-4-[(2E)-3-[(3R)-3-morpholinyl]-2-propenyl]piperazine dihydrochloride] |  |
| 190 to 191 | > 80 | Cc1ccc(C[C@@H]2CN(CC#C[C@@H]3COCCN3)CCN2C(=O)c2cc(C(F)(F)F)cc(C(F)(F)F)c2)cc1C.Cl.Cl [Example 68, (2R)-1-[3,5-bis(trifluoromethyl)benzoyl]-2-(3,4-dimethylbenzyl)-4-[3-[(3R)-morpholin-3-yl]-2-propynyl]piperazine dihydrochloride] |  |
